From patent US12600728B2, “Interleukin-17 inhibitors” (priority 2020, dated 2026)
pIC50: −log10 of the molar value. Where two headings read alike, the source gives them in different places.

Experiments:
[1] = biological target: recombinant human IL-17AA (Homo sapiens, UniProt Q16552); assay: IL-6 release from NHDF cells, IL-17AA plus TNF-α stimulation; format: cell-based; conditions: 24 hours, IL-6 by ELISA
Summary of the method: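 IL-17-specific IL-6 release from NHDF cells adhered overnight; compounds pre-incubated 30 min at room temperature with human IL-17AA plus TNF-α, then 24 h on cells at 37° C. Final DMSO 0.1% or plasma 20%; IL-6 by ELISA (450 nm). TNF-α-only IL-6 subtracted before IC50 fit.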

[2] = biological target: biotinylated human IL-17A / AF647-labeled human IL-17RA (Homo sapiens, UniProt Q16552); assay: Human IL-17A×IL-17RA TR-FRET assay; format: binding
Chain of biotinylated human IL-17A / AF647-labeled human IL-17RA (Q16552 24-155): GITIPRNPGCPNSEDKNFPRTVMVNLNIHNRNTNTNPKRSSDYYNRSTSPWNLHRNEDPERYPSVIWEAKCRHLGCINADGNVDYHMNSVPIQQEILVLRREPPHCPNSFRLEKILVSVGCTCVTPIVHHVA
Summary of the method: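 Compounds tested in duplicate at each concentration; neutral controls contain all components with DMSO in place of compound.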

[3] = NHDF cells, IL-17AA 30 pM plus TNF-α 6 pM, read-out: IL17AA + TNF IC50 IL-6
[4] = TR-FRET, biotinylated human IL-17A 5 nM, AF647-labeled human IL-17RA 30 nM, read-out: IL17AA FRET/ IL17Rawt IC50
[5] = NHDF cells, IL-17AA 30 pM + TNF-α 6 pM, read-out: IL17AA + TNF IC50 IL-6
[6] = TR-FRET, 5 nM IL-17A, 30 nM IL-17RA, read-out: IL17AA FRET/ IL17Rawt IC50
[7] = IL17AA + TNF IC50 IL-6, NHDF cells, IL-17AA 30 pM + TNF-α 6 pM
[8] = IL17AA FRET/ IL17Rawt IC50, TR-FRET, 5 nM IL-17A, 30 nM IL-17RA
[9] = IL17AA + TNF IC50 IL-6, NHDF cells, IL-17AA 30 pM plus TNF-α 6 pM
[10] = IL17AA FRET/ IL17Rawt IC50, TR-FRET, biotinylated human IL-17A 5 nM, AF647-labeled human IL-17RA 30 nM

Chain of recombinant human IL-17AA (Q16552 24-155): as above

Row | Structure (SMILES) | pIC50 [1, 3] | pIC50 [2, 4] | also measured
1 | CCc1nocc1C(=O)N[C@H](C(=O)Nc1ccc(-c2c(C(F)(F)F)cc[n+]([O-])c2C)cc1)C1CCCC1 [Example 5, (S)-3-(4-(2-cyclopentyl-2-(3-ethylisoxazole-4-carboxamido)acetamido)phenyl)-2-methyl-4-(trifluoromethyl)pyridine 1-oxide] | 8.05 | 7.55 | melting point: 149 to 151 °C
2 | CCc1nocc1C(=O)N[C@H](C(=O)Nc1ccc(-c2c(Cl)cc[n+]([O-])c2C)cc1)[C@H]1CCCC(F)(F)C1 [Example 6, 4-chloro-3-(4-((S)-2-((S)-3,3-difluorocyclohexyl)-2-(3-ethylisoxazole-4-carboxamido)acetamido)phenyl)-2-methylpyridine 1-oxide] | 8.30 | 7.32 | melting point: 247 to 250 °C
3 | CCc1nocc1C(=O)N[C@H](C(=O)Nc1ccc(-c2c(C)cc[n+]([O-])c2C)cc1)C1CCC(F)(F)CC1 [Example 31, (S)-3-(4-(2-(4,4-difluorocyclohexyl)-2-(3-ethylisoxazole-4-carboxamido)acetamido)phenyl)-2,4-dimethylpyridine 1-oxide] | 7.82 | 6.94 | 
4 | CC(=O)N1CCn2ccc(C(=O)N[C@H](C(=O)Nc3ccc(-c4c(C)cc[n+]([O-])c4C)cc3)C3CCCCCC3)c2C1 [Example 185, (S)-3-(4-(2-(2-acetyl-1,2,3,4-tetrahydropyrrolo[1,2-a]pyrazine-8-carboxamido)-2-cycloheptylacetamido)phenyl)-2,4-dimethylpyridine 1-oxide] |  |  | pIC50 [1, 5]: 8.01; pIC50 [2, 6]: 7.11
5 | Cc1c(-c2ccc(NC(=O)[C@@H](NC(=O)c3ccnn3C)C3CCC(F)(F)CC3)cc2)c(Cl)cc[n+]1[O-] [Example 52, (S)-4-chloro-3-(4-(2-(4,4-difluorocyclohexyl)-2-(1-methyl-1H-pyrazole-5-carboxamido)acetamido)phenyl)-2-methylpyridine 1-oxide] | 7.10 | 7.37 | 
6 | Cc1cc[n+]([O-])c(C)c1-c1ccc(NC(=O)C(NC(=O)c2ccc3n2CCNC3)C2CCC(C(F)(F)F)CC2)cc1 [Example 178, 2,4-dimethyl-3-(4-((S)-2-(1,2,3,4-tetrahydropyrrolo[1,2-a]pyrazine-6-carboxamido)-2-((1r,4S)-4-(trifluoromethyl)cyclohexyl)acetamido)phenyl)pyridine 1-oxide] |  |  | pIC50 [1, 5]: 7.52; pIC50 [2, 6]: 8.05
7 | Cc1c(-c2ccc(NC(=O)[C@@H](NC(=O)c3ccnn3C)C3CCC(F)(F)CC3)cc2F)cc(Cl)c[n+]1[O-] [Example 174, (S)-5-chloro-3-(4-(2-(4,4-difluorocyclohexyl)-2-(1-methyl-1H-pyrazole-5-carboxamido)acetamido)-2-fluorophenyl)-2-methylpyridine 1-oxide] |  |  | pIC50 [1, 7]: 6.54; pIC50 [2, 8]: 6.17
8 | CC(=O)N1CCn2c(ccc2C(=O)N[C@H](C(=O)Nc2ccc(-c3c(C(F)(F)F)cc[n+]([O-])c3C)cc2)C2CCCCC2)C1 [Example 191, (S)-3-(4-(2-(2-acetyl-1,2,3,4-tetrahydropyrrolo[1,2-a]pyrazine-6-carboxamido)-2-cyclohexylacetamido)phenyl)-2-methyl-4-(trifluoromethyl)pyridine 1-oxide] |  |  | pIC50 [1, 5]: 7.73; pIC50 [2, 6]: 6.89
9 | CC(=O)N1CCn2c(ccc2C(=O)N[C@H](C(=O)Nc2ccc(-c3c(Cl)cc[n+]([O-])c3C)cc2)C2CCCCC2)C1 [Example 199, (S)-3-(4-(2-(2-acetyl-1,2,3,4-tetrahydropyrrolo[1,2-a]pyrazine-6-carboxamido)-2-cyclohexylacetamido)phenyl)-4-chloro-2-methylpyridine 1-oxide] |  |  | pIC50 [1, 5]: 7.94; pIC50 [2, 6]: 6.63
10 | Cc1c(-c2ccc(NC(=O)[C@@H](NC(=O)c3ccnn3C)C3CCCCC3)cc2F)c(Cl)cc[n+]1[O-] (single isomer, unassigned) [Example 2a] | 7.43 | 7.31 | 
11 | Cc1c[n+]([O-])cc(C)c1-c1ccc(NC(=O)[C@@H](NC(=O)c2ccc3n2CCNC3)C2CCCCCC2)cc1 [Example 116, (S)-4-(4-(2-cycloheptyl-2-(1,2,3,4-tetrahydropyrrolo[1,2-a]pyrazine-6-carboxamido)acetamido)phenyl)-3,5-dimethylpyridine 1-oxide] | 6.93 | 6.52 | 
12 | Cc1c(-c2ccc(NC(=O)[C@@H](NC(=O)c3ccnn3C)C3CCCCC3)cc2F)cc(Cl)c[n+]1[O-] [Example 92, (S)-5-chloro-3-(4-(2-cyclohexyl-2-(1-methyl-1H-pyrazole-5-carboxamido)acetamido)-2-fluorophenyl)-2-methylpyridine 1-oxide] | 7.55 | 6.43 | 
13 | Cc1c(-c2ccc(NC(=O)[C@@H](NC(=O)c3ccnn3C)C(c3ccccc3)c3ccccc3)cc2)c(Cl)cc[n+]1[O-] [Example 69, (S)-4-chloro-2-methyl-3-(4-(2-(1-methyl-1H-pyrazole-5-carboxamido)-3,3-diphenylpropanamido)phenyl)pyridine 1-oxide] | 7.70 | 7.05 | 
14 | Cc1c(-c2ccc(NC(=O)C(NC(=O)c3ccnn3C)C3CC4C(C3)C4(F)F)cc2)c(Cl)cc[n+]1[O-] (single isomer, unassigned) [Example 54a] |  |  | pIC50 [1, 9]: 7.47; pIC50 [2, 10]: 7.55
15 | Cc1c(-c2ccc(NC(=O)[C@@H](NC(=O)c3ccnn3C)C3CC=C(F)CC3)cc2)c(C(F)(F)F)cc[n+]1[O-] (stereo partly drawn) [Example 65, 3-(4-((2S)-2-(4-fluorocyclohex-3-en-1-yl)-2-(1-methyl-1H-pyrazole-5-carboxamido)acetamido)phenyl)-2-methyl-4-(trifluoromethyl)pyridine 1-oxide] | 7.62 | 7.24 | 
16 | Cc1cc[n+]([O-])c(C)c1-c1ccc(NC(=O)[C@H](Cc2ccccc2F)NC(=O)c2ccnn2C)cc1 [Example 217, (S)-3-(4-(3-(2-fluorophenyl)-2-(1-methyl-1H-pyrazole-5-carboxamido)propanamido)phenyl)-2,4-dimethylpyridine 1-oxide] |  |  | pIC50 [1, 5]: 5.53; pIC50 [2, 6]: 5.96
17 | Cc1cc[n+]([O-])c(C)c1-c1ccc(NC(=O)[C@@H](NC(=O)c2ccnn2C)[C@H]2CCCc3ccccc32)cc1 [Example 1, 2,4-dimethyl-3-(4-((S)-2-(1-methyl-1H-pyrazole-5-carboxamido)-2-((S)-1,2,3,4-tetrahydronaphthalen-1-yl)acetamido)phenyl)pyridine 1-oxide] | 8.40 | 8.10 | 
18 | Cc1cc[n+]([O-])c(C)c1-c1ccc(NC(=O)[C@@H](NC(=O)c2ccnn2C)[C@H]2CCC[C@H](F)CC2)cc1 [Example 197, 3-(4-((S)-2-((1S,4S)-4-fluorocycloheptyl)-2-(1-methyl-1H-pyrazole-5-carboxamido)acetamido)phenyl)-2,4-dimethylpyridine 1-oxide] |  |  | pIC50 [1, 5]: 6.92; pIC50 [2, 6]: 6.67
19 | Cc1cc(-c2ccc(NC(=O)[C@@H](NC(=O)c3ccnn3C)C3CCC(F)(F)CC3)cc2)c(C)[n+]([O-])c1 [Example 171, (S)-3-(4-(2-(4,4-difluorocyclohexyl)-2-(1-methyl-1H-pyrazole-5-carboxamido)acetamido)phenyl)-2,5-dimethylpyridine 1-oxide] |  |  | pIC50 [1, 7]: 6.40; pIC50 [2, 8]: 6.33
20 | CCn1nccc1C(=O)NC(C(=O)Nc1ccc(-c2c(C(F)(F)F)cc[n+]([O-])c2C)cc1)C1CC2CC2C1 (single isomer, unassigned) [Example 64] |  |  | pIC50 [1, 9]: 7.60; pIC50 [2, 10]: 7.13
21 | Cc1c(-c2ccc(NC(=O)[C@@H](NC(=O)c3ccnn3C)C3CCCCC3)cc2F)c(Cl)cc[n+]1[O-] (single isomer, unassigned) [Example 2b] | 7.85 | 7.77 | 
